Assay results: US5461067A, “Retroviral protease inhibiting compounds” (priority 1994, dated 1995)
Like-named read-outs stand apart in the source and are kept apart here.

Key:
HIV-1 protease = HIV-1 protease (Human immunodeficiency virus type 1 group M subtype B, UniProt P04585); experiment: Fluorogenic assay for screening inhibitors of HIV protease
Protocol: The inhibitory potency of the compounds of the invention can be determined by the following method.
A compound of the invention is dissolved in DMSO and a small aliquot further diluted with DMSO to 100 times the final concentration desired for testing. The reaction is carried out in a 6×50 mm tube in a total volume of 300 microliters. The final concentrations of the components in the reaction buffer are: 125 mM sodium acetate, 1M sodium chloride, 5 mM dithiothreitol, 0.5 mg/ml bovine serum albumin, 1.3 μM fluorogenic substrate, 2% (v/v) dimethylsulfoxide, pH 4.5. After addition of inhibitor, the reaction mixture is placed in the fluorometer cell holder and incubated at 30° C. for several minutes. The reaction is initiated by the addition of a small aliquot of cold HIV protease. The fluorescence intensity (excitation 340 nm, emmision 490 nM) is recorded as a function of time. The reaction rate is determined for the first six to eight minutes. The observed rate is directly proportional to the moles of substrate cleaved per unit time. The percent inhibition is 100×(1-(rate in presence of inhibitor)/(rate in absence of inhibitor)).

HIV-13B in MT4 cells = experiment: Anti-HIV activity (inhibition of cytopathic effect of HIV) in MT4 cells; assay type: cell-based; details: Human immunodeficiency virus 1, concentration giving 50% inhibition of cytopathic effect of HIV
Excerpt: (§1) The IC50 is the concentration of compound that gives 50% inhibition of the cytopathic effect of HIV. The LC50 is the concentration of compound at which 50% of the cells remain viable.

[1] = Cytotoxicity in MT4 cells; assay type: cell-based; details: human, concentration at which 50% of the cells remain viable, read-out: LC50 (the source's name)
Excerpt: as §1

[2] = pH 4.5, read-out: Percent Inhibition

Compound | IC50 (HIV-1 protease) [nM] | IC50 (HIV-13B in MT4 cells) [nM] | inhibition at 0.0005 µM (HIV-1 protease; [2]) [%] | further results
CC(C)(C)OC(=O)NN(Cc1ccc(O)cc1)C[C@H](O)[C@H](Cc1ccccc1)NC(=O)OCc1ccccc1 [Example 52, 5S-(Benzyloxycarbonyl)amino-2-(t-butyloxycarbonyl)amino-4S-hydroxy-1-(4-hydroxyphenyl)-6-phenyl-2-azahexane] | 7.5 |  |  | inhibition at 0.0075 µM (HIV-1 protease; [2]): 50%
CC(C)(C)OC(=O)NN(Cc1ccccc1)C[C@H](O)[C@H](Cc1ccccc1)NC(=O)OCc1cncs1 [Example 7F, 5S-(((5-Thiazolyl)methoxy)carbonyl)amino-2-(t-butyloxycarbonyl)amino-4S-hydroxy-1,6-diphenyl-2-azahexane] | 4.4 | 6500 to 18200 |  | inhibition at 0.0044 µM (HIV-1 protease; [2]): 50%; CC50 [1]: 44000 nM
CC(C)c1nc(CN(C)C(=O)N[C@H](C(=O)NN(Cc2cccc(O)c2)C[C@H](O)[C@H](Cc2ccccc2)NC(=O)OCc2cncs2)C(C)C)cs1 [Example 56B, 5S-(((5-Thiazolyl)methoxy)carbonyl)amino-2-N-((((N-methyl-N-2-isopropyl-4-thiazolyl)methyl)amino)carbonyl)-L-valinylamino-4S-hydroxy-1-(3-hydroxyphenyl)-6-phenyl-2-azahexane] |  |  | 49 | 
CC(C)c1nc(COC(=O)N[C@H](C(=O)N[C@@H](Cc2ccccc2)[C@@H](O)CN(Cc2ccc(O)cc2)NC(=O)OC(C)(C)C)C(C)C)co1 [Example 53, 5S-(((2-Isopropyl-4-oxazolyl)methoxycarbonyl)-valinyl)amino-2-(t-butyloxycarbonyl)amino-4S-hydroxy-1-(4-hydroxyphenyl)-6-phenyl-2-azahexane] |  | 55 | 57 | 
CC(C)(C)OC(=O)NN(Cc1ccc(-c2ccccc2)cc1)C[C@H](O)[C@H](Cc1ccccc1)NC(=O)OCc1ccccc1 [Example 58, 2-(t-Butyloxycarbonyl)amino-5S-(benzyloxycarbonyl)amino-4S-hydroxy-1-(4-biphenyl)-6-phenyl-2-azahexane] | 18 |  |  | inhibition at 0.018 µM (HIV-1 protease; [2]): 50%
CC(C)c1nc(COC(=O)N[C@H](C(=O)N[C@@H](Cc2ccccc2)[C@@H](O)CN(Cc2ccc(F)cc2)NC(=O)OC(C)(C)C)C(C)C)co1 [Example 51D] | 0.5 | 209 to 274 | 50 | 
CC(C)c1nc(CN(C)C(=O)N[C@H](C(=O)NN(Cc2ccc(O)cc2)C[C@H](O)[C@H](Cc2ccccc2)NC(=O)OCc2cncs2)C(C)C)cs1 [Example 54B] |  | 37 to 67 | 56 | 
CC(C)c1nc(CN(C)C(=O)N[C@H](C(=O)NN(Cc2ccccc2)C[C@H](O)[C@H](Cc2ccccc2)NC(=O)OCc2cncs2)C(C)C)cs1 [Example 8, 5S-(((5-Thiazolyl)methoxy)carbonyl)amino-2-N-((N-methyl-N-((2-isopropyl-4-thiazolyl)methyl)amino)carbonyl)-L-valinylamino-4S-hydroxy-1,6-diphenyl-2-azahexane] |  | 100 to 110 | 77 | CC50 [1]: 17000 nM
CC(C)(C)OC(=O)NN(Cc1ccc(OCCN2CCOCC2)cc1)C[C@H](O)[C@H](Cc1ccccc1)NC(=O)OCc1ccccc1 [Example 57C, 2-(t-Butyloxycarbonyl)amino-5S-(benzyloxycarbonyl)amino-4S-hydroxy-1-(4-((2-morpholinyl)ethoxy)phenyl)-6-phenyl-2-azahexane] | 9.9 |  |  | inhibition at 0.0099 µM (HIV-1 protease; [2]): 50%
COc1ccc(CN(C[C@H](O)[C@H](Cc2ccccc2)NC(=O)OCc2ccccc2)NC(=O)OC(C)(C)C)cc1 [Example 14B, 5S-N-(Benzyloxycarbonyl)amino-2-N-(t-butyloxycarbonyl)amino-4S-hydroxy-1-p-methoxyphenyl-6-phenyl-2-azahexane] | 10 |  |  | inhibition at 0.01 µM (HIV-1 protease; [2]): 50%
CC(C)(C)OC(=O)NN(Cc1ccccc1)C[C@H](O)[C@H](Cc1ccccc1)NC(=O)OCc1ccccc1 [Example 1F, 2-(t-Butyloxycarbonyl)amino-4S-hydroxy-5S-(benzyloxycarbonyl)amino-1,6-diphenyl-2-azahexane] | 5.1 | 36000 |  | inhibition at 0.0051 µM (HIV-1 protease; [2]): 50%; CC50 [1]: > 100000 nM
COc1ccc(CN(C[C@H](O)[C@H](Cc2ccccc2)NC(=O)[C@@H](NC(=O)OCc2ccccn2)C(C)C)NC(=O)OC(C)(C)C)cc1 [Example 15, 5S-N-((2-Pyridinyl)methoxycarbonyl)-L-valinylamino-2-N-(t-butyloxycarbonyl)amino-4S-hydroxy-1-p-methoxyphenyl-6-phenyl-2-azahexane] |  | 440 to 600 | 44 | CC50 [1]: > 100000 nM
CC(C)c1nc(CN(C)C(=O)N[C@H](C(=O)NN(Cc2ccccc2)C[C@H](O)[C@H](Cc2ccccc2)NC(=O)OCc2ccccc2)C(C)C)cs1 [Example 6H, 5S-(Benzyloxycarbonyl)amino-2-N-(((N-methyl-N-((2-isopropyl-4-thiazolyl)methyl)amino)carbonyl)-L-valinyl)amino-4S-hydroxy-1,6-diphenyl-2-azahexane] |  |  | 73 | 
CC(C)c1nc(COC(=O)N[C@H](C(=O)NN(Cc2ccccc2)C[C@H](O)[C@H](Cc2ccccc2)NC(=O)OCc2cncs2)C(C)C)co1 [Example 50, 5 S-(((5-Thiazolyl)methoxy)carbonyl)amino-2-((N-2-isopropyl-4-oxazolyl)methoxycarbonyl)amino-4S-hydroxy-1,6-diphenyl-2-azahexane] |  | 16 to 31 | 73 | 
COc1cccc(CN(C[C@H](O)[C@H](Cc2ccccc2)NC(=O)OCc2ccccc2)NC(=O)OC(C)(C)C)c1 [Example 17B] |  |  |  | inhibition at 0.012 µM (HIV-1 protease; [2]): 50%; IC50 (HIV-1 protease; read-out: Inhibitor Concentration (at 50 Percent Inhibition), concentration printed with 50 percent inhibition, pH 4.5, 30° C.): 12 nM
CC(C)c1nc(COC(=O)N[C@H](C(=O)NN(Cc2ccoc2)C[C@H](O)[C@H](Cc2ccccc2)NC(=O)OCc2cncs2)C(C)C)co1 [Example 49E, 5S-(((5-Thiazolyl)methoxy)carbonyl)amino-2-((N-2-isopropyl-4-oxazolyl)methoxycarbonyl)amino-4S-hydroxy-1-(3-furanyl)-6-phenyl-2-azahexane] |  | 29 to 32 | 75 | 
CC(C)(C)OC(=O)NN(Cc1ccoc1)C[C@H](O)[C@H](Cc1ccccc1)NC(=O)OCc1cncs1 [Example 47] | 2.1 |  |  | inhibition at 0.0021 µM (HIV-1 protease; [2]): 50%
CC(C)(C)OC(=O)NN(Cc1cccc(O)c1)C[C@H](O)[C@H](Cc1ccccc1)NC(=O)OCc1ccccc1 [Example 55C, 5S-(Benzyloxycarbonyl)amino-2-(t-butyloxycarbonyl)amino-4S-hydroxy-1-(3-hydroxyphenyl)-6-phenyl-2-azahexane] | 7.4 |  |  | inhibition at 0.0074 µM (HIV-1 protease; [2]): 50%
CC(C)c1nc(CN(C)C(=O)N[C@H](C(=O)NN(Cc2ccoc2)C[C@H](O)[C@H](Cc2ccccc2)NC(=O)OCc2cncs2)C(C)C)cs1 [Example 48, 5S-(((5-Thiazolyl)methoxy)carbonyl)amino-2-N-(((N-methyl-N-( (2-isopropyl-4-thiazolyl)methyl)amino)carbonyl)-L-valinyl)amino-4S-hydroxy-1-(3-furanyl)-6-phenyl-2-azahexane] |  | 88 to 114 | 66 | 
CC(C)(C)OC(=O)NN(Cc1ccccc1)C[C@H](O)[C@H](Cc1ccccc1)NC(=O)OCc1cccnc1 [Example 4B, 5S-((3-Pyridinyl)methoxycarbonyl)amino-2-t-butyloxycarbonylamino-4S-hydroxy-1,6-diphenyl-2-azahexane] | 3.9 |  |  | inhibition at 0.0039 µM (HIV-1 protease; [2]): 50%
